{
  "source": "patent US12036312B2",
  "about": "“Non-aqueous topical compositions comprising a halogenated salicylanilide” (priority 2016, dated 2024)",
  "key": {"[1]": {"conditions": "published literature values; cited from earlier work"}, "P. aeruginosa": {"test_system": "P. aeruginosa", "conditions": "Imperi et al. 2013, cited from earlier work"}, "[2]": {"test": "Mini-pig PK: niclosamide concentration in plasma", "format": "in vivo, Göttingen SPF mini-pigs", "conditions": "mini-pigs, day 28, dermal application of the formulations", "protocol": "The study was performed in 3 male and 3 female Göttingen SPF mini-pigs from Ellegaard Göttingen Mini-pigs A/S, DK-4261 Dalmose, Denmark. At the start of the acclimatization period, the animals were approximately 6 months old and the body weight was 12.1 to 13.4 kg. An acclimatization period of at least 1 week was allowed, during which the animals were observed daily.\nAll test fields were semi-occluded with Mefix® (Mölnlycke Health Care, Sweden), allowing the sites to “breathe” while keeping the test substance in place. The Mefix® was kept in place with adhesive tape (Tensoplast, BSN medical, Germany) for 6 hours±30 minutes after application to ensure that the compounds were absorbed into the skin."}},
  "data": [
    {"smiles": "O=C(Nc1ccc([N+](=O)[O-])cc1Cl)c1cc(Cl)ccc1O", "note": "[Niclosamide, niclosamide]", "values": [
      {"measurement": "LD50 mice p.o", "setting": "[1]", "value": ">1500", "unit": "mg/kg"},
      {"measurement": "effect on growth of P. aeruginosa", "setting": "P. aeruginosa", "value": "does not affect the growth of P. aeruginosa"},
      {"measurement": "concentration at which some inhibition was detected (quorum sensing)", "setting": "P. aeruginosa; P. aeruginosa", "value": 1, "unit": "µM"},
      {"measurement": "concentration required for optimal activity (quorum sensing)", "setting": "P. aeruginosa; P. aeruginosa", "value": 20, "unit": "µM"},
      {"measurement": "concentration in the plasma", "setting": "[2]", "value": "less than 0.651 ng/mL"}
    ]}
  ]
}
